Assay results published in patent US20240317746A1, “CRYSTALLINE FORMS OF AN AZETIDINE PARP1 INHIBITOR” (XinThera, Inc., priority 2023, published 2024).
Converted amounts (≈) assume the structure as drawn. “And” between values parts separate entries of the source, which are not always exact repeats. Identical values can stand only once. “Also recorded” adds a separate entry of the source. Counter-ions that a name gives are not always drawn. One block for each molecule: values may come before it.

Assays:
[1] = DVS test (dynamic vapor sorption, hygroscopicity); assay type: physicochemical; details: for hygroscopicity (in words): DVS
Procedure: All the three target forms remained no change after DVS test.
Dynamic Vapor Sorption (DVS) was used to study hygroscopicity on Model Q5000 SA (TA Instruments, New Castle, DE). A sample (1-10 mg) was placed in an aluminum pan and loaded on the sample side of the twin pan balance. The water sorption and desorption were studied as a function of relative humidity (RH) at 25° C. in 10% RH increments from 0% RH to 90% RH and then back to 0%. […] Data analysis was performed using Universal Analysis 2000 Version 4.7A (TA Instruments, New Castle, DE).

[2] = Solid-state stability at 60° C. (capped) and 40° C./75% RH (open); assay type: physicochemical; details: for XRPD - 7 d / physical and chemical stability: 7 days; for physical and chemical stability: 60° C. (capped) and 40° C./75% RH (open); for Initial Purity: before storage, HPLC
Procedure: (capped) and 40° C./75% RH (open) for 7 days. Duplicate samples were prepared at each condition. The stability sample was dissolved in diluent to prepare solution at ˜1 mg/mL for HPLC purity analysis. Solid samples were analyzed by XRPD to check the crystal form. […] (capped) and 40° C./75% RH (open) for at least 7 days.

[3] = Solubility in bio-relevant media (SGF, FaSSIF, FeSSIF) and water; assay type: physicochemical; details: for XRPD 0.5 h / XRPD 2 h / XRPD 24 h: filter cake; for solubility compared to Freebase Form I (in words): water, FaSSIF and FeSSIF, 37° C.
Procedure: At 0.5, 2 and 24 hours, about 0.6 mL of each suspension was filtered, the filtrate was analyzed by HPLC and pH meter, and the filter cake was analyzed by XRPD. The samples were prepared in duplicate (n=2) per condition. Average value (n=2) was presented.
HPLC analysis was performed with an Agilent HPLC 1260 series instrument.

[4] = Preliminary solubility test: estimated solubility at RT by visual observation; assay type: physicochemical
Procedure: The solubility of Compound 1 (starting material) was estimated at RT in 18 single solvents and 6 solvent mixtures by visual observation. Approximately 5 mg solids were weighed into 8 mL glass vial, and then solvent was added stepwise until solids were dissolved completely or a total of solvent volume reached 5 mL. […] The solubility was estimated and for reference only.

[5] = Polymorph screening (slurry conversion, cooling, evaporation, anti-solvent, cyclic heating-cooling, salt break); details: about 20 mg in 1 mL
Procedure: Form I was obtained from most polymorph screening experiments. […]
Cyclic heating-cooling experiments were carried out in Crystal 16 Parallel Crystallizer. About 20 mg of Compound 1 (starting material) was added into 1 mL solvents, and a heating-cooling program was performed: • 1. Equilibrated first at 20° C., and heated to 75 or 100° C. at 0.2° C./min (the elevated temperature is set according to boiling point of solvent). • 2. Held at 75 or 100° C. for 1 h. • 3. Cooled to 20° C. at 0.2° C./min and hold for 1 h. • 4. Repeated the above procedures once.
Turbidimeter from Crystal 16 recorded if solids were completely dissolved during heating. Form I was obtained in most solvent systems. […]

[6] = FaSSIF, initial pH 6.45, 37° C., average n=2
[7] = FaSSIF, initial pH 6.45, filtrate
[8] = FeSSIF, initial pH 4.99, 37° C., average n=2
[9] = FeSSIF, initial pH 4.99, filtrate
[10] = Water, initial pH 5.41, 37° C., average n=2
[11] = Water, initial pH 5.41, filtrate
[12] = in FaSSIF and FeSSIF, XRPD of filter cake

hygroscopicity (in words) [1]: slightly hygroscopic
hygroscopicity (in words) ([1]; listed as Tartrate Salt Form I): slightly hygroscopic
water uptake ([1]; at 80% RH): < 1% and 0.8%
water uptake ([1]; at 90% RH): 1.4%
water uptake ([1]; from 0 to 90% RH at 25° C., listed as Tartrate Salt Form I): about 1.1%
XRPD - 7 d ([2]; 40° C./75% RH (open)): Unchanged
physical and chemical stability [2]: physically and chemically stable
XRPD - 7 d ([2]; 60° C. (capped)): Unchanged
Initial Purity [2]: 99.64 area %
XRPD 0.5 h ([3]; FaSSIF): Amorphous
XRPD 2 h ([3]; FaSSIF): FB Form I
XRPD 24 h ([3]; FaSSIF): FB Form I
Solubility 0.5 h [3, 6]: 2088 µg/mL
Solubility 2 h [3, 6]: 1320 µg/mL
Solubility 24 h [3, 6]: 980 µg/mL
pH 0.5 h [3, 7]: 3.98
pH 2 h [3, 7]: 3.81
pH 24 h [3, 7]: 3.69
XRPD 0.5 h ([3]; FeSSIF): Amorphous
XRPD 2 h ([3]; FeSSIF): FB Form I
XRPD 24 h ([3]; FeSSIF): FB Form I
Solubility 0.5 h [3, 8]: 496 µg/mL
Solubility 2 h [3, 8]: 207 µg/mL
Solubility 24 h [3, 8]: 144 µg/mL
pH 0.5 h [3, 9]: 4.71
pH 2 h [3, 9]: 4.71
pH 24 h [3, 9]: 4.70
XRPD 0.5 h, 2 h, 24 h ([3]; SGF): Clear
Solubility 0.5 h, 2 h, 24 h ([3]; SGF, initial pH 1.23, 37° C.): >5000 µg/mL
pH 0.5 h ([3]; SGF, initial pH 1.23, filtrate): 1.32
pH 2 h ([3]; SGF, initial pH 1.23, filtrate): 1.17
pH 24 h ([3]; SGF, initial pH 1.23, filtrate): 1.25
XRPD 0.5 h ([3]; Water): Unchanged
XRPD 2 h ([3]; Water): Unchanged
Solubility 0.5 h [3, 10]: 4288 µg/mL
Solubility 2 h [3, 10]: 4422 µg/mL
Solubility 24 h [3, 10]: 293 µg/mL
pH 0.5 h [3, 11]: 3.63
pH 2 h [3, 11]: 3.58
pH 24 h [3, 11]: 3.73
form change of the solid [3, 12]: dissociated into Freebase Form I
form change of the solid ([3]; in water at 24 h): converted into a new pattern
solubility compared to Freebase Form I (in words) [3]: improved solubility
SMILES: C[C@@H]1[C@@H](Oc2ccc(C(=O)NC3CC3)nc2)CN1Cc1cnc2cc(Cl)c(=O)[nH]c2c1 [Tartrate Form I, 5-(((2R,3S)-1-((7-chloro-6-oxo-5,6-dihydro-1,5-naphthyridin-3-yl)methyl)-2-methylazetidin-3-yl)oxy)-N-cyclopropylpicolinamide]
conversion rate to the freebase (in words) ([3]; in FaSSIF and FeSSIF, compared with Maleate Form IV): slower conversion rate; also recorded: slower form conversion

hygroscopicity (in words) [1]: hygroscopic
water uptake ([1]; from 0 to 90% RH at 25° C.): about 3.6%
SMILES: C[C@@H]1[C@@H](Oc2ccc(C(=O)NC3CC3)nc2)CN1Cc1cnc2cc(Cl)c(=O)[nH]c2c1 [Hemiedisylate Salt Form II, 5-(((2R,3S)-1-((7-chloro-6-oxo-5,6-dihydro-1,5-naphthyridin-3-yl)methyl)-2-methylazetidin-3-yl)oxy)-N-cyclopropylpicolinamide]

hygroscopicity (in words) [1]: hygroscopic
water uptake ([1]; from 0 to 90% RH at 25° C.): about 10.2%
SMILES: C[C@@H]1[C@@H](Oc2ccc(C(=O)NC3CC3)nc2)CN1Cc1cnc2cc(Cl)c(=O)[nH]c2c1 [L-Tartrate Salt Form II, 5-(((2R,3S)-1-((7-chloro-6-oxo-5,6-dihydro-1,5-naphthyridin-3-yl)methyl)-2-methylazetidin-3-yl)oxy)-N-cyclopropylpicolinamide]

hygroscopicity (in words) [1]: hygroscopic
water uptake ([1]; from 0 to 90% RH at 25° C.): about 4.6%
SMILES: C[C@@H]1[C@@H](Oc2ccc(C(=O)NC3CC3)nc2)CN1Cc1cnc2cc(Cl)c(=O)[nH]c2c1 [L-Malate Salt Form II, 5-(((2R,3S)-1-((7-chloro-6-oxo-5,6-dihydro-1,5-naphthyridin-3-yl)methyl)-2-methylazetidin-3-yl)oxy)-N-cyclopropylpicolinamide]

solubility ([4]; DCM/MeOH (1/1), organic solvent or mixture, thermodynamic from solid, DCM/MeOH (1/1), read-out: Solubility): 5000 to 20000 µg/mL (≈ 11.4 to 45.5 mM)
solubility ([4]; DCM/MeOH (4/1), listed as Compound 1 (starting material)): 50~100 mg/mL
solubility ([4]; DMSO, DMF, DMAc (each), organic solvent or mixture, thermodynamic from solid, DMSO, DMF, DMAc, read-out: Solubility): 20000 to 50000 µg/mL (≈ 45.5 to 114 mM)
solubility ([4]; organic solvent or mixture, thermodynamic from solid, Acetone/Water (9/1), ACN/Water (9/1), MeOH/Water (9/1), Acetone/EtOH (1/1), THF, MeOH, read-out: Solubility): 1000 to 5000 µg/mL (≈ 2.27 to 11.4 mM)
solubility ([4]; water, thermodynamic from solid, EtOH, IPA, Acetone, EtOAc, ACN, Water, DCM, 2-MeTHF, Toluene, MTBE, MEK, Heptane, read-out: Solubility): < 1000 µg/mL
Hot Dissolution ([5]; 2-MeTHF, 75° C.): Yes
Hot Dissolution ([5]; ACN/Water (9/1), 75° C.): No
Hot Dissolution ([5]; DMAc/Toluene (1/2), 100° C.): Yes
Hot Dissolution ([5]; EtOH, 75° C.): Yes
Hot Dissolution ([5]; MEK, 75° C.): No
Hot Dissolution ([5]; MIBK, 100° C.): No
Hot Dissolution ([5]; n-Butanol/Anisole (1/1), 100° C.): Yes
SMILES: C[C@@H]1[C@@H](Oc2ccc(C(=O)NC3CC3)nc2)CN1Cc1cnc2cc(Cl)c(=O)[nH]c2c1 [Compound 1, 5-(((2R,3S)-1-((7-chloro-6-oxo-5,6-dihydro-1,5-naphthyridin-3-yl)methyl)-2-methylazetidin-3-yl)oxy)-N-cyclopropylpicolinamide]

hygroscopicity (in words) [1]: hygroscopic
water uptake ([1]; from 0 to 90% RH at 25° C.): about 6%
SMILES: C[C@@H]1[C@@H](Oc2ccc(C(=O)NC3CC3)nc2)CN1Cc1cnc2cc(Cl)c(=O)[nH]c2c1 [Sulfate Salt Form III, 5-(((2R,3S)-1-((7-chloro-6-oxo-5,6-dihydro-1,5-naphthyridin-3-yl)methyl)-2-methylazetidin-3-yl)oxy)-N-cyclopropylpicolinamide]

hygroscopicity (in words) [1]: slightly hygroscopic
water uptake ([1]; at 80% RH): < 1% and 0.6%
water uptake ([1]; at 90% RH): 0.9%
XRPD - 7 d ([2]; 40° C./75% RH (open)): Unchanged
physical and chemical stability [2]: physically and chemically stable
XRPD - 7 d ([2]; 60° C. (capped)): Unchanged
Initial Purity [2]: 99.72 area %
XRPD 0.5 h ([3]; FaSSIF): FB Form I
XRPD 2 h ([3]; FaSSIF): FB Form I
XRPD 24 h ([3]; FaSSIF): FB Form I
Solubility 0.5 h [3, 6]: 397 µg/mL
Solubility 2 h [3, 6]: 410 µg/mL
Solubility 24 h [3, 6]: 373 µg/mL
pH 0.5 h [3, 7]: 4.58
pH 2 h [3, 7]: 4.46
pH 24 h [3, 7]: 4.43
solubility at 24 h ([3]; FeSSIF, 37 °C, pH 4.99, fessif, thermodynamic from solid, initial pH 4.99, 37° C., average n=2): 131 µg/mL
XRPD 0.5 h ([3]; FeSSIF): FB Form I
XRPD 2 h ([3]; FeSSIF): FB Form I
XRPD 24 h ([3]; FeSSIF): FB Form I
Solubility 0.5 h [3, 8]: 369 µg/mL
Solubility 2 h [3, 8]: 159 µg/mL
pH 0.5 h [3, 9]: 4.82
pH 2 h [3, 9]: 4.82
pH 24 h [3, 9]: 4.79
XRPD 0.5 h, 2 h, 24 h ([3]; SGF): Clear
solubility ([3]; SGF, 37 °C, pH 1.23, simulated gastric fluid, thermodynamic from solid, SGF, initial pH 1.23, 37° C., read-out: Solubility 0.5 h, 2 h, 24 h): > 5000 µg/mL
pH 0.5 h ([3]; SGF, initial pH 1.23, filtrate): 1.33
pH 2 h ([3]; SGF, initial pH 1.23, filtrate): 1.17
pH 24 h ([3]; SGF, initial pH 1.23, filtrate): 1.22
XRPD 0.5 h, 2 h, 24 h ([3]; Water): Little solid
Solubility 0.5 h [3, 10]: 4527 µg/mL
Solubility 2 h [3, 10]: 4494 µg/mL
Solubility 24 h [3, 10]: 3797 µg/mL
pH 0.5 h [3, 11]: 3.81
pH 2 h [3, 11]: 3.75
pH 24 h [3, 11]: 3.90
form change of the solid [3, 12]: dissociated into Freebase Form I
solubility compared to Freebase Form I (in words) [3]: improved solubility
SMILES: C[C@@H]1[C@@H](Oc2ccc(C(=O)NC3CC3)nc2)CN1Cc1cnc2cc(Cl)c(=O)[nH]c2c1 [Maleate Form IV, 5-(((2R,3S)-1-((7-chloro-6-oxo-5,6-dihydro-1,5-naphthyridin-3-yl)methyl)-2-methylazetidin-3-yl)oxy)-N-cyclopropylpicolinamide]
